One substance from patent US8093216B2, “Method of treating cancer by inhibition of p95HER-2 production” (Oregon Health & Science University, priority 1998, dated 2012) can be followed below.

Test [1] relates to p95HER-2. The test can be described thus: Cell level of truncated p95HER-2, Western blot of cell extracts with anti-neu (C), BT474 cells. The format is cell-based, human. The procedure: BT474 cells in serum-free medium were treated for 24 hrs with the control vehicle or with 1, 10, 20, and 40 μM TAPI (a gift from Immunex, Seattle, Wash.). In the top panel (FIG. 5A), the concentrated, conditioned media, normalized to the amount of cell extract, were analyzed by western blotting with anti-neu (N). […] In the lower panel (FIG. 5B), 20 μg of cell proteins were analyzed by Western blotting using anti-neu (C). […]
Therefore, effects of different concentrations of the hydroxamic acid, TAPI (Mohler et al., Nature 370:218-220, 1994) was tested on shedding of HER-2/neu ECD and on cell levels of p95.

The test system of another test is HER-2/neu ECD. The experiment in a line: Shedding of HER-2/neu ECD into conditioned media, Western blot with anti-neu (N), BT474 cells. The format is cell-based, human. As to the method:
Cells were treated for 24 hrs in serum-free medium with control vehicle or with 500 nM of the phorbol ester TPA and 50 μM chloroquine. In the top panel (FIG. 4A), 5 ml of conditioned media was concentrated 100 fold, denatured under nonreducing conditions, and aliquots normalized to cell extract protein were analyzed by western blotting with anti-neu (N) monoclonal antibody at 1 μg/ml. In the lower panel (FIG. 4B), 20 μg of cell proteins were analyzed by Western blotting using anti-neu (C). The data shown in FIG. 4 are representative of three replicate experiments.
BT474 cells in serum-free medium were treated for 24 hrs with the control vehicle or with 1, 10, 20, and 40 μM TAPI (a gift from Immunex, Seattle, Wash.). In the top panel (FIG. 5A), the concentrated, conditioned media, normalized to the amount of cell extract, were analyzed by western blotting with anti-neu (N). […] In the lower panel (FIG. 5B), 20 μg of cell proteins were analyzed by Western blotting using anti-neu (C).
Tyrosine phosphorylation of tyrosine kinase receptors generally indicates their activation in signaling (Hynes et al., Biochem. Biophys. Acta 1198:165-184, 1994; and Dougall et al., Oncogene 9: 2109-2123, 1994). The tyrosine phosphorylation of p95HER-2, and its subcellular location were examined by fractionation of BT474 cell extracts into a soluble fraction and a particulate fraction. Each fraction was immunoprecipitated with anti-neu (C) and then subjected to Western blot analysis using monoclonal antibodies against phosphotyrosine. […]
To determine whether p95HER-2 and ECD were coordinately regulated, TPA (500 nM) and chloroquine (50 μM) or the control vehicle were added to the culture media of BT474 and SKOV3 cells. […] At 24 hrs, the ECD levels in the extracellular media and p95HER-2 levels in the cell extract were analyzed. […]

Test [2] has as its system p95HER-2. The experiment in a line: p95HER-2 level in a further, unnamed cell line treated with TAPI. The format is cell-based.
A further test concerns p185HER-2/neu. The experiment in a line: p185HER-2/neu level in treated cells, Western blot with anti-neu (C). The format is cell-based, human. The settings on record: cells treated with TAPI. As to the method:
BT474 cells in serum-free medium were treated for 24 hrs with the control vehicle or with 1, 10, 20, and 40 μM TAPI (a gift from Immunex, Seattle, Wash.). In the top panel (FIG. 5A), the concentrated, conditioned media, normalized to the amount of cell extract, were analyzed by western blotting with anti-neu (N). Similar results were obtained when 5 μg of protein from the conditioned media from each culture were analyzed.
This example illustrates that a metalloprotease inhibitor depressed levels of p95HER-2 and ECD from BT474 cells. Shedding of diverse transmembrane proteins is inhibited by hydroxamic acid-based compounds, which are potent metalloproteinase inhibitors (McGeehan et al., Nature 370:561, 1994; Mohler et al., Nature 370:218-220, 1994; and Arribas et al., J. Biol. Chem. 271:11376-11382, 1996). Therefore, effects of different concentrations of the hydroxamic acid, TAPI (Mohler et al., Nature 370:218-220, 1994) was tested on shedding of HER-2/neu ECD and on cell levels of p95. TAPI (0 to 40 μM) was added to cultured BT474 cells for 24 hrs, the ECD in concentrated conditioned media was analyzed by immunoblotting with anti-neu (N), and p95HER-2 and p185HER-2 polypeptides were examined in cell extracts using an anti-neu (C) monoclonal antibody. […] A residual amount of about 10% of the ECD resisted inhibition by even 40 μM TAPI.

Where [3] appears, read: 1 μM TAPI, three separate experiments.
[4] abbreviates: BT474 cells, 24 hrs, 1, 10, 20 and 40 μM TAPI.

Entries after “also recorded” stand apart in the source; their conditions may differ.

TAPI: the “inhibition of p95HER-2 level” value with p95HER-2 [1] (setting [3]) is recorded as ≤ 50%. Moreover, the “level of truncated p95HER-2 at 1 μM TAPI” value in the test on p95HER-2 [1] (BT474 cells, 24 hrs, 1 μM) was “little or no effect”. In addition, in the test on p95HER-2 [1] (setting [4]), the “effect on p95HER-2 level” value is recorded as “inhibited; also recorded: suppressed”. Also, in the test on HER-2/neu ECD (setting [3]), the “inhibition of ECD level” value is reported as ≤ 50%. The “effect on ECD level” value with HER-2/neu ECD (setting [4]) is “inhibited; also recorded: suppressed”. In the test on HER-2/neu ECD (BT474 cells, serum-free medium, 24 hrs, 1 μM), the “production of ECD at 1 μM TAPI” value is listed as “partially inhibited”. Further, the “effect on p95HER-2 in a cell line” value with p95HER-2 [2] is “increased”. Also, the “change in p185HER-2/neu levels” value with p185HER-2/neu was “No change”.
